# Experimental data from patent publication US20240262845A1, “PYRIDINIUM SALTS, METHODS OF MAKING, AND METHODS OF USE” (UNIVERSITY OF WYOMING, priority 2023, published 2024).
# Where a name gives a salt, the structure may show the parent alone.
# What was measured:
# thioredoxin = target: T1, thioredoxin (Escherichia coli, UniProt P0AA25); test: Photochemical labeling of thioredoxin with pyridinium salt (General Procedure B, LC/MS); format: biochemical; conditions: trypsin digest
# T1 construct: purchased Sigma Aldrich; host or cells: E. coli
# T1 sequence (P0AA25 whole entry): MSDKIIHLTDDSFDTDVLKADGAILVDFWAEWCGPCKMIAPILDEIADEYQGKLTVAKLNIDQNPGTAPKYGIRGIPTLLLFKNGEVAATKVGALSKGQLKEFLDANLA
# Protocol: (§1) General Procedure B: Photochemical Irradiation of Peptides and Proteins: To a 2 mL Pyrex LC/MS vial (Thermo model #03-391-39) were sequentially added solutions containing the desired biomolecule, glutathione (GSH), pyridinium salt, and ammonium acetate (NH4OAc). The resulting solution was diluted to a final volume of 500 μL and then sparged using nitrogen for a minimum of 30 minutes prior to irradiation. The actively sparging solution was then placed in an EvoluChem™ PhotoRedOx Box photoreactor that was equipped with a Kessil, PR160 427 nm LED Lamp and was then irradiated (100% lamp intensity) for the designated time at room temperature while maintaining active sparging. The resultant reaction mixture was then analyzed directly by LC/MS. Analysis of labeling outcomes using LC/MS was performed either by extracted ion chromatogram intensities (method A) or by integrating the area under the peaks associated with peptide content (method B). These values were totaled, and estimated percentages were assigned according to relative intensities of peaks or ion counts.
# Labeling of Thioredoxin with Pyridinium Salt 2a (Thioredoxin-2a Conjugate). […] The reaction mixture was directly analyzed by LC/MS using method A and was estimated to have proceeded with 93% conversion and a 14.5:1 mono:di labeled ratio and 3% glutathionylation of all protein content. […]
# [1] = target: T2, bovine carbonic anhydrase II (Bos taurus, UniProt P00921); test: Photochemical labeling of bovine carbonic anhydrase II with pyridinium salt (General Procedure B, LC/MS); format: biochemical; conditions: trypsin digest
# T2 construct: Carbonic Anhydrase Isozyme II from bovine erythrocytes; purchased Sigma Aldrich; host or cells: bovine erythrocytes
# T2 sequence (P00921 whole entry): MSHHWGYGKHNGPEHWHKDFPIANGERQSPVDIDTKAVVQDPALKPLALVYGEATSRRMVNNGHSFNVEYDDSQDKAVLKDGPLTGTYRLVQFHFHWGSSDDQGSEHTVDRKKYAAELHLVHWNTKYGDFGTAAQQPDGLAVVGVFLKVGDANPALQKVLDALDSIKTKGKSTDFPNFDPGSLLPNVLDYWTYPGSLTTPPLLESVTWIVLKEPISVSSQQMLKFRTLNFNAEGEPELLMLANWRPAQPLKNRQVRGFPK
# Protocol: as §1, with “Analysis of labeling outcomes using LC/MS was performed either by extracted ion chromatogram intensities (method A) or by integrating the area under the peaks associated with peptide content (method B). These values were totaled, and estimated percentages were assigned according to relative intensities of peaks or ion counts.” left out
# Labeling of Bovine Carbonic Anhydrase II with Pyridinium Salt 2a (Bovine Carbonic Anhydrase II-2a Conjugate). […] The reaction mixture was directly analyzed by LC/MS using method A and was estimated to have proceeded with 34% conversion and a 4.5:1 mono:di labeled ratio. […]
# General Trypsin Digest Protocol B: For non-cystine bridged labeled proteins, a standard trypsin digest was modified as follows. […] The digested mixture was analyzed directly by LC/MS and MS/MS using method C. […]
smiles,measurement,setting,value
"COC(=O)N(C)[n+]1c(C)cc(-c2ccc3cc(OC)ccc3c2)cc1C [pyridinium salt 2a, 1-((methoxycarbonyl)(methyl)amino)-4-(6-methoxynapthalen-2-yl)-2,6-dimethylpyridin-1-ium tetrafluoroborate]",Modified Trp,thioredoxin,Trp-31
same,Modified Trp,[1],Trp-243
